# Several values for one entry are separate records, joined by “and”; a condition that tells them apart may be missing. Equal values may be shown once. Read-outs that look alike come from different tables or passages of the source.
# Assays:
# [1] = Pharmacokinetic study, erinacine A in rat plasma after oral and intravenous administration; assay type: in vivo, Sprague-Dawley rats
# Procedure: Analysis of erinacine A concentration in samples was conducted by Agilent 1100 series HPLC system (Agilent, Waldbronn, Germany) equipped with a G1376A capillary pump and a G1313A autosampler. Chromatographic separation was carried out in an Agilent Eclipse XDB-C18 column (3.5 µm, 4.6 × 100 mm) at 25 °C. The mobile phase consists of water (A) and acetonitrile (B) with gradient elution program as follows: 0 min, 70% B; 0–5 min, 70–100% B; 5–8 min, 100% B; 8–8.1 min, 100–70% B; 8.1–11 min, 70% B. The flow rate was 0.35 mL/min and injection volume was 10 μL. Mass spectrometric detection was conducted on an API 3000 triple quadrupole instrument (Applied Biosystems, Vaughan, ON, Canada) in multiple reaction monitoring (MRM) mode with parameters as follows: nebulizer gas, 10 psi; collision gas, 2 psi; curtain gas, 7 psi; source voltage, 4.5 kV; source temperature, 275 °C. A turbo ionspray electrospray ionization (ESI) interface in positive ionization mode was used (Applied Biosystem, Foster City, CA, USA). The specific precursor to product ion transitions is [M+H] 433 → 301 for erinacine A and 197 → 169 for 2,4,5-TMBA (internal standard). Data analysis was performed with Analyst 1.4.2 software (Applied Biosystems, Concord, ON, Canada).
# Before intravenous administration, animals were anesthetized with Avertin (2,2,2-Tribromoethanol, 0.071 M). Blood was collected into heparinized microtubes at scheduled time points and centrifuged at 2404× g for 10 min. The plasma (100 μL) was then mixed with equal volume of internal standard 2,4,5-TMBA (final concentration 25 ng/mL) and 300 μL of ethyl acetate. The mixture was vortexed and centrifuged at 13,845× g for 3 min. The supernatant was removed and the residue was reconstituted with isovolumetric acetonitrile for LC-MS/MS analysis. All animal procedures were approved by the Animal Care and Use Committee of Shih Chien University (IACUC#10405).
# All experimental data were presented as mean ± standard deviation (mean ± SD). Maximal plasma concentration (Cmax), and time taken to achieve maximal plasma concentration (Tmax), half-life (T1/2), and area under the plasma concentration − time curve (AUC) were assessed on each animal using the software of WinNonlin (Pharsight Corp., Mountain View, CA, USA) by the non-compartmental model. Applying the pharmacokinetic data of oral administration (po) and intravenous administration (iv), the absolute bioavailability of erinacine A was calculated as [(AUCpo × Doseiv)/(AUCiv × Dosepo)] × 100%.
# [2] = Tissue distribution study after single oral administration; assay type: in vivo, Sprague-Dawley rats; details: for Tmax / concentration at 4 h: Sprague-Dawley, rat
# Procedure: The homogenates (100 μL) were then mixed with equal volume of internal standard 2,4,5-TMBA (final concentration 25 ng/mL) and 300 μL of ethyl acetate. The mixture was vortexed and centrifuged at 13,845× g for 3 min. The supernatant was removed and the residue was reconstituted with isovolumetric acetonitrile for LC-MS/MS analysis.
# [3] = Excretion study, feces and urine, after single oral administration; assay type: in vivo, Sprague-Dawley rats
# Procedure: […] Feces were freeze-dried and grinded before mixing with equal volume of internal standard 2,4,5-TMBA (final concentration 25 ng/mL) and 300 μL of ethyl acetate. Urines were mixed with equal volume of internal standard 2,4,5-TMBA (final concentration 25 ng/mL) and 300 μL of ethyl acetate. The mixture was vortexed and centrifuged at 13,845× g for 3 min. The supernatant was removed and the residue was reconstituted with isovolumetric acetonitrile for LC-MS/MS analysis.
# rat plasma = assay: Protein binding in plasma by rapid equilibrium dialysis; assay type: in vitro ADME, Sprague-Dawley rats
# Procedure: (§1) Then, the protein binding of erinacine A in the plasma and diluted (4×) tissue homogenates (brain, heart, lung, liver, kidney, stomach, large intestine, and small intestine) was determined by rapid equilibrium dialysis devices with 8000 Da molecular weight cut-off (#89809, Thermo Fisher Scientific, Waltham, MA, USA) according to manufacturer’s guidelines. In brief, the stock solution of erinacine A prepared in methanol was spiked into blank plasma and tissues to yield a final concentration of 200 ng/mL. Two hundred microliter aliquot of spiked samples were then dialysed against 350 µL aliquot of isotonic phosphate buffered saline at 37 °C on an orbital shaker at 250 rpm for 4 h. The resulting sample and buffer dialysates were removed from the chambers, matched with an equal volume of opposite blank matrix, and analyzed by LC-MS/MS. The protein binding of erinacine A is determined by the following Equations (1) and (2):% Free = (concentration at buffer chamber/concentration at sample chamber) × 100%(1) % Bound = 100% − % Free(2)
# [4] = Protein binding in diluted (4×) tissue homogenates by rapid equilibrium dialysis; assay type: in vitro ADME, Sprague-Dawley rats; details: Sprague-Dawley, rat, 200 ng/mL, 37 °C, 4 h
# Procedure: as §1
# [5] = tested on: diluted (4×) tissue homogenates; assay: as above; assay type: in vitro ADME, Sprague-Dawley rats; details: calculated from protein binding assay with equation of ref 36
# Procedure: as §1
# [6] = Stability in plasma and tissues at 37 °C for 4 h; assay type: in vitro ADME, Sprague-Dawley rats; details: data not shown
# [7] = rat, in vivo, iv, 5 mg/kg
# [8] = tested on: nerve growth factor (NGF); set-up: method as in doi:10.1016/S0040-4039(00)76760-8; details: in vitro; cited from earlier work
# [9] = tested on: nerve growth factor (NGF); set-up: method as in doi:10.1016/j.nutres.2005.06.001; details: rats, 8 mg/kg BW for 5 weeks from birth; cited from earlier work
# [10] = tested on: transient focal cerebral ischemia; set-up: method as in PMID 25167134; details: rat, intraperitoneal 1 mg/kg during the 5 days before onset of ischemia; cited from earlier work
# [11] = tested on: DLD-1 colorectal adenocarcinoma cells; set-up: method as in doi:10.1016/j.jff.2015.12.031, PMID 31680958; details: in vitro; cited from earlier work
# DLD-1 xenografts = tested on: DLD-1 xenografts; set-up: method as in doi:10.1016/j.jff.2015.12.031, PMID 31680958; details: nude mice; cited from earlier work
# [12] = tested on: insoluble β amyloid and C-terminal fragment of amyloid precursor protein; set-up: method as in PMID 29463001; details: cited from earlier work
# [13] = set-up: method as in PMID 31022946; details: rats, cited from earlier work
# [14] = male, Sprague-Dawley, iv, rat plasma, I.V. erinacine A 5 mg/kg
# [15] = male, Sprague-Dawley, po, rat plasma, P.O. mycelia extract 2.381 g/kg BW (equivalent to 50 mg/kg erinacine A)
# [16] = 0–4 h after oral mycelia extract 2.381 g/kg BW
# [17] = collected for 24 h, comparison with ref 22
# [18] = unchanged erinacine A, cumulative
# [19] = oral mycelia powder equivalent to 50 mg/kg BW erinacine S
compound,measurement,setting,value
CC(C)C1=C2C3=CC=C(C=O)C[C@H](O[C@@H]4OC[C@@H](O)[C@H](O)[C@H]4O)[C@]3(C)CC[C@@]2(C)CC1 [erinacine A],AUC,[1]; [14],3120 ng·h/mL
same,Cmax,[1]; [14],4530 ± 3420 ng/mL
same,half-life,[1]; [14],4.37 ± 4.55 min
same,Tmax,"[1]; male, Sprague-Dawley, po, rat plasma, P.O. H. erinaceus mycelia extract 2.381 g/kg BW (equivalent to 50 mg/kg BW erinacine A), n = 6",6 h
same,AUC,[1]; [15],7620 ng·h/mL
same,Cmax,[1]; [15],1400 ± 1140 ng/mL
same,half-life,[1]; [15],491 ± 112 min
same,concentration at 90 min,"[1]; male, Sprague-Dawley, rat, plasma, 2.381 g/kg, oral, at 90 min, read-out: Plasma concentration, first peak",640 ng/mL
same,concentration at 150 min,"[1]; male, Sprague-Dawley, rat, plasma, 2.381 g/kg, oral, at 150 min, read-out: Plasma concentration, second peak",735 ng/mL
same,concentration at 360 min,"[1]; male, Sprague-Dawley, rat, plasma, 2.381 g/kg, oral, at 360 min, read-out: Plasma concentration, third peak",1250 ng/mL
same,bioavailability,"[1]; male, Sprague-Dawley, rat, plasma, rats, [(AUCpo × Doseiv)/(AUCiv × Dosepo)] × 100%, po 50 mg/kg equivalent, iv 5 mg/kg, read-out: Absolute Bioavailability",24.4%
same,Earliest detection in plasma after oral administration,[1]; oral mycelia powder equivalent to 50 mg/kg BW erinacine A,1 min
same,Tmax,"[2]; brain, oral mycelia extract 2.381 g/kg BW, read-out: Time of peak concentration in brain",8 h
same,concentration at 4 h,"[2]; heart, 4 h after oral mycelia extract 2.381 g/kg BW, read-out: Concentration in heart",1110 ± 264 ng/g
same,concentration at 4 h,"[2]; kidney, 4 h after oral mycelia extract 2.381 g/kg BW, read-out: Concentration in kidney",1280 ± 438 ng/g
same,concentration at 4 h,"[2]; large intestine, 4 h after oral mycelia extract 2.381 g/kg BW, read-out: Concentration in large intestine",726 ± 336 ng/g
same,concentration at 4 h,"[2]; liver, 4 h after oral mycelia extract 2.381 g/kg BW, read-out: Concentration in liver",2830 ± 641 ng/g
same,concentration at 4 h,"[2]; lung, 4 h after oral mycelia extract 2.381 g/kg BW, read-out: Concentration in lung",1180 ± 339 ng/g
same,concentration at 4 h,"[2]; small intestine, 4 h after oral mycelia extract 2.381 g/kg BW, read-out: Concentration in small intestine",25400 ± 20400 ng/g
same,concentration at 4 h,"[2]; stomach, 4 h after oral mycelia extract 2.381 g/kg BW (50 mg/kg erinacine A), read-out: Concentration in stomach",56500 ± 27600 ng/g
same,Tmax,"[2]; oral mycelia extract 2.381 g/kg BW, read-out: Time of peak concentration in stomach, small intestine, large intestine, liver, heart, lung and kidney",4 h
same,Maximum concentration in brain,[2]; eight hours after oral mycelia extract 2.381 g/kg BW,0.205 ± 0.079 µg/g
same,Detectability in tissues at the end of 24 h,[2]; oral mycelia extract 2.381 g/kg BW,"still detectable in GI tract, heart, and liver"
same,Blood-brain barrier penetration,"[2]; rats, oral mycelia extract",can penetrate the blood-brain barrier of rats by the means of passive diffusion
same,Feces Concentration,[3]; [16],1.533 ± 2.625 µg/g
same,Urine Concentration,[3]; [16],0.248 µg/mL and 0.248 ± 0.210 µg/mL
same,Feces Concentration,[3]; 4–8 h,81.853 ± 99.919 µg/g
same,Urine Concentration,[3]; 4–8 h,0.118 ± 0.103 µg/mL
same,Feces Concentration,[3]; 8–12 h,271.237 µg/g and 271.237 ± 404.357 µg/g
same,Urine Concentration,[3]; 8–12 h,0.059 ± 0.043 µg/mL
same,Feces Concentration,[3]; 12–24 h,122.824 ± 198.611 µg/g
same,Urine Concentration,[3]; 12–24 h,0.055 ± 0.066 µg/mL
same,Feces Concentration,[3]; 24–36 h,4.475 ± 6.477 µg/g
same,Urine Concentration,[3]; 24–36 h,0.021 ± 0.037 µg/mL
same,Feces Concentration,[3]; 36–48 h,0.062 ± 0.099 µg/g
same,Urine Concentration,[3]; 36–48 h,0.016 ± 0.018 µg/mL
same,Total amount of unchanged compound in feces relative to erinacine S,[3]; [17],more than 20 times
same,Total amount of unchanged compound in urine relative to erinacine S,[3]; [17],> 2 times
same,"Cumulative fecal excretion, % of administered dose",[3]; unchanged erinacine A,2.823%
same,"Cumulative urinary excretion, % of administered dose",[3]; unchanged erinacine A,0.017%
same,Total Amount excreted in feces,[3]; [18],428.379 ± 368.502 µg
same,Total Amount excreted in urine,[3]; [18],2.604 ± 2.149 µg
same,Percent free in plasma,"rat plasma; 200 ng/mL, 37 °C, 4 h equilibrium dialysis, n = 3",84.00 ± 2.01%
same,Nonspecific binding with the plasma or tissues,"rat plasma; 37 °C up to 4 h, preliminary study, data not shown",negligible
same,"fraction unbound at 4 h, 200 ng/mL","[4]; diluted (4×) brain homogenate, brain homogenate, highest, read-out: Binding with the brain (% bound) (converted)",0.711
same,"fraction unbound at 4 h, 200 ng/mL","[4]; diluted (4×) stomach homogenate, stomach homogenate, lowest, read-out: Binding with the stomach (% bound) (converted)",0.883
same,Unbound brain-to-plasma concentration ratio,[5],close to unity
same,Stability in plasma and tissues,[6],no degradation was observed
same,Toxicity signs,[7],no toxicity signs were observed
same,Nerve growth factor (NGF) stimulation,[8],stimulated nerve growth factor (NGF) in vitro
same,NGF content in hippocampus and locus coeruleus,[9],increased NGF content
same,Levels of acute inflammatory cytokines and ischemia-injury-induced neuronal cell death,[10],significantly reduced
same,Proliferation of DLD-1 cells,[11],inhibited the proliferation
same,Growth of DLD-1 xenografts,DLD-1 xenografts,inhibited
same,Reduction of insoluble β amyloid and C-terminal fragment of amyloid precursor protein,[12],could reduce
CC(C)C1=C2[C@H]3CCC4=C(O)C(=O)[C@@]5(O)CO[C@H]6O[C@@H]([C@@H]4[C@]65O)[C@]3(C)CC[C@@]2(C)CC1 [erinacine S],Maximum plasma concentration,[13]; [19],0.73 µg/mL
same,Time to reach maximum plasma concentration,[13]; [19],270.00 min
same,Absolute bioavailability,[13],15.13%
same,Reduction of insoluble β amyloid and C-terminal fragment of amyloid precursor protein,[12],not
